Measured values published in ChEMBL document CHEMBL1159056, “Antitumor agents. 271: total synthesis and evaluation of brazilein and analogs as anti-inflammatory and cytotoxic agents” (Bioorg Med Chem Lett, 2010).
pIC50: −log10 of the molar value. In brackets after ≈: the same amount, converted by molar mass.

Tests used:
[1] = Antiinflammatory activity in human neutrophils assessed as inhibition of fMLP/cytochalasin B-induced superoxide anion generation at 10 ug/mL; assay type: functional; details: Neutrophil
[2] = Antiinflammatory activity in human neutrophils assessed as inhibition of fMLP/cytochalasin B-induced elastase release; assay type: functional, cell-based; details: Neutrophil
A549 = test: Cytotoxicity against human A549 cells; assay type: functional, cell-based
[3] = Cytotoxicity against human KBVIN cells; assay type: functional, cell-based
DU-145 = test: Cytotoxicity against human DU145 cells; assay type: functional, cell-based
KB = test: Cytotoxicity against human KB cells; assay type: functional, cell-based
[4] = Antiinflammatory activity in human neutrophils assessed as inhibition of fMLP/cytochalasin B-induced superoxide anion generation; assay type: functional, cell-based; details: Neutrophil
[5] = Antiinflammatory activity in human neutrophils assessed as inhibition of fMLP/cytochalasin B-induced elastase release at 10 ug/mL; assay type: functional; details: Neutrophil
MDA-MB-231 = test: Cytotoxicity against human MDA-MB-231 cells; assay type: functional, cell-based
MCF7 = test: Cytotoxicity against human MCF7 cells; assay type: functional, cell-based
Ca9-22 = test: Cytotoxicity against human Ca9-22 cells; assay type: functional, cell-based
HepG2 = test: Cytotoxicity against human HepG2 cells; assay type: functional, cell-based
[6] = Cytotoxicity against human Hep3B cells; assay type: functional, cell-based, Hep 3B2

Compound | pIC50 [2] | pIC50 [4] | pIC50 (A549) | pIC50 [3] | pIC50 (DU-145) | pIC50 (KB) | IC50 (A549) [µg/mL] | other results
O=C1C=C2CC3(OC(=O)c4ccccc4)COc4cc(OC(=O)c5ccccc5)ccc4C3=C2C=C1OC(=O)c1ccccc1 (stereo not given) | 4.88 |  |  |  |  |  |  | inhibition at 10 µg/mL [1]: 14.1%
COc1ccc2c(c1)OC/C(=C\c1ccc(OC)c(OC)c1)C2=O |  |  | < 4.70 | 4.74 | < 4.70 | < 4.70 |  | 
O=C1C=C2CC3(O)COc4cc(OCc5ccccc5)ccc4C3=C2C=C1OCc1ccccc1 (stereo not given) | 5.06 |  |  |  |  |  |  | inhibition at 10 µg/mL [1]: 33.4%
COC1=CC2=C3c4ccc(OC)cc4OCC3(O)CC2=CC1=O (stereo not given) |  |  |  |  |  |  |  | inhibition at 10 µg/mL [1]: 18.6%; inhibition at 10 µg/mL [5]: 26.8%
CN(C)C(=O)OC1=CC2=C3c4ccc(OC(=O)N(C)C)cc4OCC3(O)CC2=CC1=O (stereo not given) |  |  |  |  |  |  |  | inhibition at 10 µg/mL [1]: 16.4%; inhibition at 10 µg/mL [5]: 11.4%
C=CCOC1=CC2=C3c4ccc(OCC=C)cc4OCC3(OCC=C)CC2=CC1=O (stereo not given) | 4.93 | 4.79 |  |  |  |  |  | 
O=C1C=C2CC3(O)COc4cc(O)ccc4C3=C2C=C1O (stereo not given) [BRAZILEIN] | 4.85 | 5.40 |  |  |  |  | 9.68 | IC50 (MDA-MB-231): 2.36 µg/mL (≈ 8.3 µM); IC50 (MCF7): 3.96 µg/mL (≈ 13.9 µM); IC50 (Ca9-22): 8.63 µg/mL (≈ 30.4 µM); IC50 (HepG2): 3.15 µg/mL (≈ 11.1 µM); IC50 [6]: 3.42 µg/mL (≈ 12 µM)
c1ccc2c(c1)[I+]c1ccccc1-2 [DIPHENYLENEIODONIUM] |  | 6.15 |  |  |  |  |  | 
COc1cccc2c1C(=O)c1c(O)c3c(c(O)c1C2=O)C[C@@](O)(C(=O)CO)C[C@@H]3O[C@H]1C[C@H](N)[C@H](O)[C@H](C)O1 [DOXORUBICIN] |  |  |  |  |  |  | 0.32 | IC50 (MDA-MB-231): 1.05 µg/mL (≈ 1.93 µM); IC50 (MCF7): 0.42 µg/mL (≈ 0.773 µM); IC50 (HepG2): 0.34 µg/mL (≈ 0.626 µM); IC50 [6]: 0.56 µg/mL (≈ 1.03 µM)
CC(=O)O[C@H]1C(=O)[C@@]2(C)[C@H]([C@H](OC(=O)c3ccccc3)[C@]3(O)C[C@H](OC(=O)[C@H](O)[C@@H](NC(=O)c4ccccc4)c4ccccc4)C(C)=C1C3(C)C)[C@]1(OC(C)=O)CO[C@@H]1C[C@@H]2O [PACLITAXEL] |  |  | 8.71 | 8.96 |  | 8.81 |  | 

Further lines, with some results ahead:

pIC50 [2] | pIC50 [4] | Compound | pIC50 (A549) | pIC50 [3] | pIC50 (DU-145) | pIC50 (KB) | IC50 (A549) [µg/mL] | other results
4.87 | 5.33 | COC1=CC2=C3c4ccc(OC)cc4OCC3(OC)CC2=CC1=O (stereo not given) | < 4.70 | 4.77 | 4.76 | 4.82 |  | 
 | 5.34 | COc1ccc2c(c1)OCC1(O)Cc3cc(OC)c(OC)cc3C21 (stereo not given) | < 4.70 | 5.12 | 4.86 | 4.98 |  | inhibition at 10 µg/mL [5]: 35.8%
5.48 | 5.78 | CCC(=O)OC1=CC2=C3c4ccc(OC(=O)CC)cc4OCC3(O)CC2=CC1=O (stereo not given) | 5.11 |  | 5.15 | 5.11 |  | 
4.81 |  | CCN(CC)C(=O)OC1=CC2=C3c4ccc(OC(=O)N(CC)CC)cc4OCC3(O)CC2=CC1=O (stereo not given) |  |  |  |  |  | inhibition at 10 µg/mL [1]: -7%
 | 5.72 | COc1ccc2c(c1)OCC1(OC1c1ccc(OC)c(OC)c1)C2=O (stereo not given) | < 4.70 | 5.19 | 4.97 | 5.01 |  | inhibition at 10 µg/mL [5]: 43.7%
5.08 | 5.36 | CCOC1=CC2=C3c4ccc(OCC)cc4OCC3(O)CC2=CC1=O (stereo not given) | 4.82 | 4.78 | 4.96 | 4.95 |  | 
5.00 | 4.71 | CC(C)=CCOC1=CC2=C3c4ccc(OCC=C(C)C)cc4OCC3(O)CC2=CC1=O (stereo not given) |  |  |  |  |  | 
 | 4.62 | CCOC1=CC2=C3c4ccc(OCC)cc4OCC3(OCC)CC2=CC1=O (stereo not given) | < 4.70 | 4.75 | 4.74 | 4.72 |  | inhibition at 10 µg/mL [5]: 35.5%
4.78 | 4.71 | C=CCOC1=CC2=C3c4ccc(OCC=C)cc4OCC3(O)CC2=CC1=O (stereo not given) | 5.03 |  | 5.04 | 5.27 |  | 
 | 4.73 | CC(=O)OC1=CC2=C3c4ccc(OC(C)=O)cc4OCC3(O)CC2=CC1=O (stereo not given) | 5.09 |  | 5.09 | 5.00 |  | inhibition at 10 µg/mL [5]: 40.9%
5.72 | 5.92 | CCC(=O)OC1=CC2=C3c4ccc(OC(=O)CC)cc4OCC3(OC(=O)CC)CC2=CC1=O (stereo not given) | 4.87 | 4.95 | 4.96 | 5.18 |  | 
4.99 | 5.08 | COc1ccc2c(c1)OCC(O)(Cc1ccc(OC)c(OC)c1)C2O (stereo not given) | < 4.70 | < 4.70 | < 4.70 | < 4.70 |  | 
4.78 | 5.34 | Oc1ccc2c(c1)OC[C@]1(O)Cc3cc(O)c(O)cc3[C@H]21 [BRAZILIN] |  |  |  |  | 15.6 | IC50 (MDA-MB-231): 3.09 µg/mL (≈ 10.8 µM); IC50 (MCF7): 6.29 µg/mL (≈ 22 µM); IC50 (Ca9-22): 9.78 µg/mL (≈ 34.2 µM); IC50 (HepG2): 3.47 µg/mL (≈ 12.1 µM); IC50 [6]: 4.54 µg/mL (≈ 15.9 µM)
